# Laboratory results as given in patent US20200024278A1, “COMPOSITION COMPRISING ANTIBIOTIC COMPOUND AND AN HETEROCYCLIC COMPOUND AND THEIR USE IN PREVENTING OR TREATING BACTERIAL INFECTIONS” (MUTABILIS, priority 2016, published 2020).
# Key:
# Assay in all cases: MIC, broth microdilution (CLSI), substance alone or ATB combined with compound at 4 or 8 μg/mL
# ECL P99 = assay type: cell-based, E. cloacae
# Method in brief: (§1)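 Antibiotic MICs were determined in presence of fixed compound at 4 or 8 μg/mL, and compound MICs alone, by visual growth inhibition. Inoculum 5·10^5 CFU/mL in ca-MHB, incubated 35 °C for 16-20 h per CLSI-M7-A7. Glucose-6-phosphate (25 μg/ml) added when fosfomycin was tested.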
# ECO UFR39 = assay type: cell-based, E. coli; conditions: for MIC ATB combined with Example compound: compound @8 μg/ml, ECO UFR39
# Method in brief: as §1
# ECO 190317 = assay type: cell-based, E. coli
# Method in brief: as §1
# SAU 29213 = assay type: cell-based, S. aureus; conditions: for MIC ATB combined with compound / MIC ATB combined with Example compound: compound @8 μg/ml, SAU 29213
# Method in brief: as §1
# KPN 6299 = assay type: cell-based, K. pneumoniae; conditions: MIC of CIP, compound @8 μg/ml
# Method: (§2) Compounds of the present invention were assessed against genotyped bacterial strains alone or in combination with an antibacterial. In the assays, MICs of said compounds or combination of antibiotics with fixed concentrations of said compounds (4 or 8 μg/mL) were determined by the broth microdilution method according to the Clinical Laboratory Standards Institute (CLSI-M7-A7). Briefly, compounds alone according to the invention were prepared in DMSO and spotted (2 μL each) on sterile polystyrene plates (Corning, 3788). Combinations of compounds and antibiotics dilutions were prepared in DMSO and spotted (1 μL each) on sterile polystyrene plates (Corning, 3788). Log phase bacterial suspensions were adjusted to a final density of 5·10^5 CFU/mL in cation-adjusted Mueller-Hinton broth (ca-MHB; Becton-Dickinson and Company) and added to each well (98 μL). Assays including Fosfomycin were supplemented with 25 μg/ml of Glucose-6-phosphate. Microplates were incubated for 16-20 h at 35° C. in ambient air. The MIC of the compounds was defined as the lowest concentration of said compounds that prevented bacterial growth as read by visual inspection. The MIC of ATB at each compound concentration was defined as the lowest concentration of ATB that prevented bacterial growth as read by visual inspection.
# KPN BAA-1898 = assay type: cell-based, K. pneumoniae
# Method: as §2
# KPN UFR42 = assay type: cell-based, K. pneumoniae; conditions: for MIC ATB combined with Example compound: compound @8 μg/ml, KPN UFR42
# Method: as §2
# PAE UFR48 = assay type: cell-based, P. aeruginosa; conditions: for MIC ATB combined with compound / MIC ATB combined with Example compound: compound @8 μg/ml, PAE UFR48
# Method in brief: as §1
# PAE 105250 = assay type: cell-based, P. aeruginosa; conditions: for MIC ATB combined with compound / MIC ATB combined with Example compound: compound @8 μg/ml, PAE 105250
# Method in brief: as §1
# PAE UFR90 = assay type: cell-based, P. aeruginosa; conditions: for MIC ATB combined with compound / MIC ATB combined with Example compound: compound @8 μg/ml, PAE UFR90
# Method in brief: as §1
# SPN 49619 = assay type: cell-based, S. pneumoniae; conditions: for MIC ATB combined with compound / MIC ATB combined with Example compound: compound @8 μg/ml, SPN 49619
# Method in brief: as §1
compound,measurement,setting,value
O=C1N2CC(c3ncco3)=CC(C2)N1OC(F)(F)C(=O)O (stereo not shown) [Example 7],MIC,ECL P99; Enterobacter cloacae,8 µg/mL
same,MIC ATB combined with Example compound,"ECL P99; MIC of CIP, compound @8 μg/ml, ECL P99",<0.031 µg/mL
same,MIC,ECO UFR39; Escherichia coli,8 µg/mL
same,MIC ATB combined with Example compound,ECO UFR39; MIC of CIP,<0.031 µg/mL
same,MIC ATB combined with Example compound,ECO UFR39; MIC of CPO,<0.031 µg/mL
same,MIC,ECO 190317; Escherichia coli,4 µg/mL
same,MIC ATB combined with Example compound,"ECO 190317; MIC of CIP, compound @8 μg/ml, ECO 190317",<0.031 µg/mL
same,MIC ATB combined with compound,SAU 29213; ATB ATM,>32 µg/mL
same,MIC ATB combined with compound,SAU 29213; ATB FEP,1 µg/mL
same,MIC ATB combined with compound,SAU 29213; ATB FOS,0.5 µg/mL
same,MIC ATB combined with compound,SAU 29213; ATB MEM,<=0.031 μg/mL
same,MIC ATB combined with compound,SAU 29213; ATB PIP,1 µg/mL
same,MIC ATB combined with Example compound,SAU 29213; MIC of CIP,0.25 µg/mL
same,MIC ATB combined with Example compound,SAU 29213; MIC of CLI,0.031 µg/mL
same,MIC ATB combined with Example compound,SAU 29213; MIC of CPO,0.25 µg/mL
same,MIC ATB combined with Example compound,SAU 29213; MIC of DAP,1 µg/mL
same,MIC ATB combined with Example compound,SAU 29213; MIC of ERY,0.25 µg/mL
same,MIC ATB combined with Example compound,SAU 29213; MIC of LZD,1 µg/mL
same,MIC ATB combined with Example compound,SAU 29213; MIC of RIF,0.0078 µg/mL
same,MIC ATB combined with Example compound,SAU 29213; MIC of SYN,0.25 µg/mL
same,MIC ATB combined with Example compound,SAU 29213; MIC of VAN,1 µg/mL
same,MIC,"SAU 29213; Staphylococcus aureus, MSSA",32 µg/mL
same,MIC ATB combined with Example compound,KPN 6299,8 µg/mL
same,MIC,"KPN BAA-1898; Klebsiella pneumoniae, BAA1898",8 µg/mL
same,MIC ATB combined with Example compound,"KPN BAA-1898; MIC of CIP, compound @8 μg/ml, KPN BAA-1898",1 µg/mL
same,MIC,KPN UFR42; Klebsiella pneumoniae,16 µg/mL
same,MIC ATB combined with Example compound,KPN UFR42; MIC of CIP,>32 µg/mL
same,MIC ATB combined with Example compound,KPN UFR42; MIC of CPO,<=0.031 μg/mL
same,MIC ATB combined with compound,PAE UFR48; ATB ATM,>32 µg/mL
same,MIC ATB combined with compound,PAE UFR48; ATB FEP,32 µg/mL
same,MIC ATB combined with compound,PAE UFR48; ATB FOS,32 µg/mL
same,MIC ATB combined with compound,PAE UFR48; ATB MEM,4 µg/mL
same,MIC ATB combined with compound,PAE UFR48; ATB PIP,>32 µg/mL
same,MIC ATB combined with Example compound,PAE UFR48; MIC of CIP,4 µg/mL
same,MIC ATB combined with Example compound,PAE UFR48; MIC of CPO,>32 µg/mL
same,MIC,PAE UFR48; Pseudomonas aeruginosa,> 32 µg/mL
same,MIC ATB combined with compound,PAE 105250; ATB ATM,8 µg/mL
same,MIC ATB combined with compound,PAE 105250; ATB FEP,8 µg/mL
same,MIC ATB combined with compound,PAE 105250; ATB FOS,>128 µg/mL
same,MIC ATB combined with compound,PAE 105250; ATB MEM,4 µg/mL
same,MIC ATB combined with compound,PAE 105250; ATB PIP,>32 µg/mL
same,MIC ATB combined with Example compound,PAE 105250; MIC of CIP,0.125 µg/mL
same,MIC ATB combined with Example compound,PAE 105250; MIC of CPO,16 µg/mL
same,MIC,PAE 105250; Pseudomonas aeruginosa,> 32 µg/mL
same,MIC ATB combined with compound,PAE UFR90; ATB ATM,16 µg/mL
same,MIC ATB combined with compound,PAE UFR90; ATB FEP,4 µg/mL
same,MIC ATB combined with compound,PAE UFR90; ATB FOS,8 µg/mL
same,MIC ATB combined with compound,PAE UFR90; ATB MEM,2 µg/mL
same,MIC ATB combined with compound,PAE UFR90; ATB PIP,>32 µg/mL
same,MIC ATB combined with Example compound,PAE UFR90; MIC of CIP,1 µg/mL
same,MIC ATB combined with Example compound,PAE UFR90; MIC of CPO,16 µg/mL
same,MIC,PAE UFR90; Pseudomonas aeruginosa,> 32 µg/mL
same,MIC ATB combined with compound,SPN 49619; ATB ATM,>32 µg/mL
same,MIC ATB combined with compound,SPN 49619; ATB FEP,<=0.031 μg/mL
same,MIC ATB combined with compound,SPN 49619; ATB FOS,8 µg/mL
same,MIC ATB combined with compound,SPN 49619; ATB MEM,<=0.031 μg/mL
same,MIC ATB combined with compound,SPN 49619; ATB PIP,0.5 µg/mL
same,MIC ATB combined with Example compound,SPN 49619; MIC of CIP,0.5 µg/mL
same,MIC ATB combined with Example compound,SPN 49619; MIC of CLI,0.125 µg/mL
same,MIC ATB combined with Example compound,SPN 49619; MIC of CPO,<=0.031 μg/mL
same,MIC ATB combined with Example compound,SPN 49619; MIC of DAP,0.125 µg/mL
same,MIC ATB combined with Example compound,SPN 49619; MIC of ERY,0.125 µg/mL
same,MIC ATB combined with Example compound,SPN 49619; MIC of LZD,1 µg/mL
same,MIC ATB combined with Example compound,SPN 49619; MIC of RIF,0.0078 µg/mL
same,MIC ATB combined with Example compound,SPN 49619; MIC of SYN,0.5 µg/mL
same,MIC ATB combined with Example compound,SPN 49619; MIC of VAN,0.125 µg/mL
same,MIC,SPN 49619; Streptococcus pneumoniae,16 µg/mL
